# Experimental data: US11491134B2, “Composition for inhibiting skin cell proliferation and/or anti-inflammation method for inhibiting skin cell proliferation and/or anti-inflammation and method for treating skin diseases and/or inflammatory diseases” (Industrial Technology Research Institute, priority 2019, dated 2022)
# System: macrophages, RAW264.7 cells
# Assay: Inhibition rate on inflammation (anti-inflammatory activity): nitric oxide, Griess reagent, LPS-treated macrophages
# Assay type: cell-based
# Conditions: Mus musculus; for inhibition at 1.5625 µM: luteolin 1.5625 μM/0.45 μg/mL; for inhibition at 3.125 µM: luteolin 3.125 μM/0.89 μg/mL; for inhibition at 6.25 µM: luteolin 6.25 μM/1.79 μg/mL; for inhibition at 12.5 µM: luteolin 12.5 μM/3.58 μg/mL; for inhibition at 25 µM: luteolin 25 μM/7.16 μg/mL; for inhibition at 50 µM: luteolin 50 μM/14.31 μg/mL; for inhibition at 0.3125 µM: luteolin 0.3125 μM/0.09 μg/mL; for inhibition at 0.625 µM: luteolin 0.625 μM/0.18 μg/mL; for inhibition at 1.25 µM: luteolin 1.25 μM/0.36 μg/mL; for inhibition at 2.5 µM: luteolin 2.5 μM/0.72 μg/mL; for inhibition at 5 µM: luteolin 5 μM/1.43 μg/mL; for inhibition at 100 µM: luteolin 100 μM/28.62 μg/mL
# Procedure: Dimethyl sulfoxide (DMSO) was used as a solvent to prepare apigenin test samples with different concentrations and luteolin test samples with different concentrations. 9 batches of experiments were performed, which respectively were Batch 1 to Batch 9. There were 6 independent experiments in each batch of experiments. In each independent experiment, inhibition rate of an apigenin test sample with a specific concentration on inflammation and inhibition rate of a luteolin test sample with a specific concentration on inflammation were determined, and inhibition rate of a combination of an apigenin test sample with the said specific concentration and a luteolin test sample with the said specific concentration on inflammation was determined. Between the independent experiments, concentrations of apigenin test samples used were different, and concentrations of luteolin test samples used were also different, however, mole ratios or weight ratios of apigenin test samples to luteolin test samples were the same. Moreover, between the batches of experiments, mole ratios or weight ratios of apigenin test samples to luteolin test samples were different. 5×10^4 macrophages, RAW264.7 cells, were inoculated in a 96-well culture plate and then placed in a 37° C. and 5% CO2 incubator for culturing overnight. After overnight culture, the supernatant was removed, and lipopolysaccharide (LPS) (50 ng/mL) and a test sample was added to the cells (refer to Table 2, and the cells of the induced group were treated with lipopolysaccharide and dimethyl sulfoxide while the cells of the control group were only treated with dimethyl sulfoxide) for reaction for 24 hours. Thereafter, the supernatant of each well in the culture plate was transferred to a new culture plate and reacted with Griess reagent (Promega, Cat. No. G2930), respectively, and then the absorbance of each well of the culture plate was determined at 540 nm by a continuous wavelength microplate reader to evaluate the content of nitric oxide (NO), and anti-inflammatory activity was calculated through the following formula: Anti-inflammation=(Induced group540 nm−Experimental group540 nm)/(Induced group540 nm−Control group540 nm) In this experiment, the synergistic effects of apigenin and luteolin were evaluated by CalcuSyn software (BIOSOFT). CalcuSyn software is an analysis software which is commonly used to analyze the drug dosage effect of single drug and multiple drugs at present. CalcuSyn software can be used to analyze drug complex interactions and automatically quantify various phenomena such as synergism and inhibition. CalcuSyn software can process the data of individual drugs and combination drugs with constant-ratio or on-constant-ratio, and can evaluate the interaction of combination drugs by the combination index (CI) (Chou and Talalay, Adv. Enzyme Regul. 22:27-55 (1984) calculated by CalcuSyn software. Calculation formula for the combination index is shown in the following: Combination index=C1/IC1+C2/IC2 C1 and C2 are the respective concentrations of the first compound and the second compound at which the activity of achieving a specific physiological or medical purpose is 50% (or 75%, or 90%) when the first compound and the second compound are analyzed in combination; IC1 and IC2 are the respective concentrations at which the activity of achieving a specific physiological or medical purpose of the first compound and the second compound is 50% (or 75%, or 90%) when the first compound and the second compound are independently analyzed. […]
smiles,measurement,setting,value
"O=c1cc(-c2ccc(O)c(O)c2)oc2cc(O)cc(O)c12 [Luteolin, luteolin]",inhibition at 1.5625 µM,"RAW264.7, Batch 1",0.1%
same,inhibition at 3.125 µM,"RAW264.7, Batch 1",21.4%
same,inhibition at 6.25 µM,"RAW264.7, Batch 1",37.2%
same,inhibition at 12.5 µM,"RAW264.7, Batch 1",56.3%
same,inhibition at 25 µM,"RAW264.7, Batch 1",84.1%
same,inhibition at 50 µM,"RAW264.7, Batch 1",99.9%
same,inhibition at 0.78 µM,"RAW264.7, Batch 2, luteolin 0.78 μM/0.22 μg/mL",0.1%
same,inhibition at 1.5625 µM,"RAW264.7, Batch 2",5.8%
same,inhibition at 3.125 µM,"RAW264.7, Batch 2",15.4%
same,inhibition at 6.25 µM,"RAW264.7, Batch 2",29.9%
same,inhibition at 12.5 µM,"RAW264.7, Batch 2",48.8%
same,inhibition at 25 µM,"RAW264.7, Batch 2",75.7%
same,inhibition at 0.3125 µM,"RAW264.7, Batch 3",0.1%
same,inhibition at 0.625 µM,"RAW264.7, Batch 3",0.1%
same,inhibition at 1.25 µM,"RAW264.7, Batch 3",0.1%
same,inhibition at 2.5 µM,"RAW264.7, Batch 3",5.1%
same,inhibition at 5 µM,"RAW264.7, Batch 3",49%
same,inhibition at 10 µM,"RAW264.7, Batch 3, luteolin 10 μM/2.86 μg/mL",80.3%
same,inhibition at 0.15625 µM,"RAW264.7, Batch 4, luteolin 0.15625 μM/0.04 μg/mL",0.1%
same,inhibition at 0.3125 µM,"RAW264.7, Batch 4",0.1%
same,inhibition at 0.625 µM,"RAW264.7, Batch 4",0.1%
same,inhibition at 1.25 µM,"RAW264.7, Batch 4",0.1%
same,inhibition at 2.5 µM,"RAW264.7, Batch 4",0.1%
same,inhibition at 5 µM,"RAW264.7, Batch 4",35.9%
same,inhibition at 0.078 µM,"RAW264.7, Batch 5, luteolin 0.078 μM/0.02 μg/mL",0.1%
same,inhibition at 0.156 µM,"RAW264.7, Batch 5, luteolin 0.156 μM/0.04 μg/mL",0.1%
same,inhibition at 0.3125 µM,"RAW264.7, Batch 5",9.8%
same,inhibition at 0.625 µM,"RAW264.7, Batch 5",3.1%
same,inhibition at 1.25 µM,"RAW264.7, Batch 5",0.5%
same,inhibition at 2.5 µM,"RAW264.7, Batch 5",16.1%
same,inhibition at 3.125 µM,"RAW264.7, Batch 6",11.1%
same,inhibition at 6.25 µM,"RAW264.7, Batch 6",40.8%
same,inhibition at 12.5 µM,"RAW264.7, Batch 6",67.1%
same,inhibition at 25 µM,"RAW264.7, Batch 6",89.6%
same,inhibition at 50 µM,"RAW264.7, Batch 6",99.9%
same,inhibition at 100 µM,"RAW264.7, Batch 6",99.9%
same,inhibition at 3.125 µM,"RAW264.7, Batch 7",13.3%
same,inhibition at 6.25 µM,"RAW264.7, Batch 7",43.9%
same,inhibition at 12.5 µM,"RAW264.7, Batch 7",70.2%
same,inhibition at 25 µM,"RAW264.7, Batch 7",89.3%
same,inhibition at 50 µM,"RAW264.7, Batch 7",99.9%
same,inhibition at 100 µM,"RAW264.7, Batch 7",99.9%
same,inhibition at 3.125 µM,"RAW264.7, Batch 8",8.9%
same,inhibition at 6.25 µM,"RAW264.7, Batch 8",34.4%
same,inhibition at 12.5 µM,"RAW264.7, Batch 8",67.9%
same,inhibition at 25 µM,"RAW264.7, Batch 8",90.4%
same,inhibition at 50 µM,"RAW264.7, Batch 8",99.9%
same,inhibition at 100 µM,"RAW264.7, Batch 8",99.9%
same,inhibition at 1.5625 µM,"RAW264.7, Batch 9",4.9%
same,inhibition at 3.125 µM,"RAW264.7, Batch 9",26.5%
same,inhibition at 6.25 µM,"RAW264.7, Batch 9",67%
same,inhibition at 12.5 µM,"RAW264.7, Batch 9",87%
same,inhibition at 25 µM,"RAW264.7, Batch 9",94.2%
same,inhibition at 50 µM,"RAW264.7, Batch 9",98.3%
